# In US20080221013A1, “Neurobiological compositions” (priority 2006, published 2008):
# Where two headings read alike, the source gives them in different places.
# Key:
# [1] = biological target: T1, alph4beta2 nAChRs (Homo sapiens, UniProt P17787+P43681); experiment: voltage-clamp recordings of xenopus oocytes heterologously expressing nAChR and lynx cRNA; type: cell-based; conditions: coexpressed with a4b2 nAChRs in oocytes, 1 mM ACh; for desensitization of ACh-evoked currents during agonist application: 20 sec; for fast time constant of desensitization / slow time constant of desensitization (plateau phase): two-exponential fit
# T1 construct: expressed in transfected cells; host or cells: Xenopus oocytes injected with cRNA
# Procedure: (§1) The inward currents were evoked by 20 sec periods of superfusion (horizontal calibration bar) with external saline containing 1 mM ACh. […] B and C. The differences in desensitization are shown with bar graphs. As described in (2), two exponentials equations were fitted to the desensitization currents during ACh application. Using these equations, fast (B) and slow (C) time constants were calculated and the average values of these constants for ACh responses are shown in B and C.
# as §1, with “C).” for “C.”, “shown.” for “are shown in B and C.”
# [2] = biological target: T2, alpha4beta2 nAChRs (Homo sapiens, UniProt P17787+P43681); experiment: co-immunoprecipitation in transiently transfected HEK293 cells; type: binding; conditions: IP with nAChR antibodies, Western blot
# T2 construct: expressed in transfected cells; host or cells: HEK293
# [3] = tested on: nAChRs; experiment: whole-cell patch clamp recordings of nicotine-induced currents in medial habenula neurons in brain slices; type: cell-based, mouse; conditions: for EC50: 250 ms nicotine pulse, 0.1 μM to 300 μM, read-out: EC50 of nicotine-induced current
# [4] = tested on: striatum; conditions: drinking water from 8 months of age for 10 months
# [5] = tested on: seizure activity; conditions: lynx1 null mutant mice vs wt; single injection of nicotine
# [6] = tested on: primary cortical cultures
# [7] = tested on: primary cortical cultures; remark: listed apart in the source
# Procedure: Cultured cells were then loaded with the Ca^2+ sensitive indicator fluo-3 and fluorescence measurements were obtained (FIG. 5A). […] Acute responses to nicotine were measured using fluorescence levels in real time.
# [8] = tested on: motor learning; conditions: 200 μg/ml nicotine in 2% saccharin
# [9] = tested on: pain sensitivity; conditions: lynx1 null mutant mice vs wild-type
# T2 sequence (P43681 29-627 limits assumed): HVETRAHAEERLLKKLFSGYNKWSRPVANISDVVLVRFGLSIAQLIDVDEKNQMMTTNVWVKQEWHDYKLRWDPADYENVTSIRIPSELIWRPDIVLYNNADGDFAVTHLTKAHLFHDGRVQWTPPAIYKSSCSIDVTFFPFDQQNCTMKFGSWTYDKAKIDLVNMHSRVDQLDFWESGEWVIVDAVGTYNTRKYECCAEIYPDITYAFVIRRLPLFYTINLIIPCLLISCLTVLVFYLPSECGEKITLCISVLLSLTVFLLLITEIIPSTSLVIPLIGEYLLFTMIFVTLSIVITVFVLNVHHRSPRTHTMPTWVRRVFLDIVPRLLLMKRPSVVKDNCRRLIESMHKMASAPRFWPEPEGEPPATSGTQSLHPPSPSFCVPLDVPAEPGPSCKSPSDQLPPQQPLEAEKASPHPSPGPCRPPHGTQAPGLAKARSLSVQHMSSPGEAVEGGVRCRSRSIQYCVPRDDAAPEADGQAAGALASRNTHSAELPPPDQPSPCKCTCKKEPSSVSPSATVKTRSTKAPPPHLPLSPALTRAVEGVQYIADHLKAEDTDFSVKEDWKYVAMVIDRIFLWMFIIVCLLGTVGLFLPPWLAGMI
# T2 sequence (P17787 26-502): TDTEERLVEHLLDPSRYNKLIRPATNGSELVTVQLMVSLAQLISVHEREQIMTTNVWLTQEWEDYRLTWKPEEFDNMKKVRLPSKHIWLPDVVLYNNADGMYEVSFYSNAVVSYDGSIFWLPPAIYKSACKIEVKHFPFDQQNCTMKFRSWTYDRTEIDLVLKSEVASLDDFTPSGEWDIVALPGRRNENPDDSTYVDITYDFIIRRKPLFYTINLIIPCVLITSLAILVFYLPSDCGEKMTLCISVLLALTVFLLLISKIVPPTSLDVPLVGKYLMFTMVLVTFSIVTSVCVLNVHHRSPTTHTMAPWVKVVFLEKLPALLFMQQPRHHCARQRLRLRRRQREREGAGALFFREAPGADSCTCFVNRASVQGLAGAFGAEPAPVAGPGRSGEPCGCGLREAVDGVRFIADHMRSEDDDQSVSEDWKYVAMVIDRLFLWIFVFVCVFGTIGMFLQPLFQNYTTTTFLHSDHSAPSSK
# T1 sequence (P43681 29-627 limits assumed): as the sequence (P43681 29-627 limits assumed) above
# T1 sequence (P17787 26-502): as the sequence (P17787 26-502) above
molecule,measurement,setting,value
lynx3: lynx family polypeptide with modulatory capacity on nAChRs; mouse lynx3 (SEQ ID NO:7),desensitization of ACh-evoked currents during agonist application,[1],significantly faster desensitization
same,fast time constant of desensitization,[1],significantly faster
same,slow time constant of desensitization (plateau phase),[1],remained the same
same,association with nAChRs in co-immunoprecipitation,[2],stable associations
CNC1(C)C2CCC(C2)C1(C)C (centres unmarked) [mecamylamine],effect on nicotine-induced currents,"[3]; nAChR antagonist, recovered during wash out",blocked
CN1CCCC1c1cccnc1 (centres unmarked) [nicotine],"vacuolation in the striatum, nicotine solution vs saccharin",[4]; lynx1−/− mice,significant increase in vacuolation
same,"vacuolation in the striatum, nicotine/saccharin vs saccharin",[4]; wild-type mice,no significant differences in vacuolation
same,neuroprotection against glutamate-mediated cell death,"[6]; lynx1−/− neurons, nicotine pretreatment, glutamate",completely abolished
same,neuroprotection against glutamate-mediated cell death,"[6]; wild-type neurons, 1 hour pretreatment of nicotine, 100 μM glutamate",protects wild-type neurons from cell death
same,"acute Ca2+ response, fluorescence in real time",[7]; lynx1−/− cultures,significant increase
same,increase in fluorescence (steady state Ca2+ levels),"[7]; lynx1−/− cultures, 10 μm nicotine",2 fold
same,"acute Ca2+ response, fluorescence in real time",[7]; wild-type cultures,not
same,change in steady state Ca2+ levels (fluorescence),"[7]; wild-type cultures, 10 μm nicotine",did not result in a significant change
same,change in fluorescence in dose-response measurements,"[7]; wild-type cultures, any of the concentrations tested",no change in fluorescence
same,rotarod performance relative to similarly treated wild-type mice,"[8]; lynx1−/− mice, 2nd day of training",significant improvement in rotarod performance
same,rotarod performance vs saccharin-treated mice,"[8]; wild-type mice, at least 6 weeks",this difference was not significant
same,"antinociceptive effect of nicotine, time on a hot-plate",[9],enhanced sensitivity
"ly6H: a lynx-related gene, a related family member, used as comparator (protein) LWCQDCTLANSSHCAPKQCQPTDTVCASVRITDPSSSRKDHSVNKMCASSCDFVKRHFFSDYLMGFINSGILKVDVDCCEKDLCN",desensitization of ACh-evoked currents during agonist application,[1],no effect on desensitization
same,fast time constant of desensitization,[1],unaffected
same,slow time constant of desensitization (plateau phase),[1],unaffected
same,association with nAChRs in co-immunoprecipitation,[2],not
"lynx2: lynx family polypeptide related to lynx1; mouse lynx2 (SEQ ID NO:5) (protein, listed as Mus musculus) MWVLGIAATFCGLFWLPGLALQIQCYQCEEFQLNNDCSSPEFIVNCTVNVQDMCQKEVMEQSAGIMYRKSCASSAACLIASAGYQSFCSPGKLNSVCISCCNTPLCNGPRPKKRGSSASAIRPGLLTTLLFFHLALCLAHC",desensitization of ACh-evoked currents during agonist application,[1],significantly faster desensitization
same,fast time constant of desensitization,[1],significantly faster
same,slow time constant of desensitization (plateau phase),[1],remained the same
same,association with nAChRs in co-immunoprecipitation,[2],stable associations
